Key:
DA uptake = assay: Striatal uptake of tritiated dopamine (3H-DA) in striatal homogenates; assay type: in vivo, mouse; conditions: 3 minutes
Description: Whole striatal homogenates were exposed to [^3H] DA for 3 minutes in the presence or absence of mazindol to examine the influence of sialidase treatment on DA uptake.
In mouse studies as depicted in FIG. 4, striatal uptake of tritiated dopamine (^3H-DA) was examined. […] Striatal homogenates were incubated with ^3H-DA in the presence (non-specific) or absence (total) of the DA uptake inhibitor mazindol (Maz).

[1] = cited from earlier work
PD patients = assay: Randomized, controlled, delayed start clinical study of GM1 in PD patients; assay type: in vivo, human
Excerpt: The more highly expressed gangliosides in the brain are GM1, GD1a, GD1b, GT1b, and GD3. […] Although GM1 administration has promise as a treatment for PD, it is difficult to source, is currently available only as a natural product extracted and purified from animal brains, and has low ability to cross the blood brain barrier.
The mean (±SE) change from baseline in Early-start (randomized to receive GM1 at start of study) and Delayed-start (randomized to receive placebo at start of study) study subjects and in a standard-of-care comparison group (no interventions). The dashed vertical line at week 24 indicates the end of study Phase I. After that, all subjects received GM1. The dashed vertical line at week 120 indicates the end of study Phase II. The horizontal dashed line indicates baseline level. An increase of score indicates symptom worsening; a decrease in score indicates symptom improvement. *=p<0.0001 Early-start vs. Delayed-start; ^=p<0.05 Early-start vs. Delayed-start

DAergic hES cells = assay: Rescue of DAergic hES cells from MPP+ toxicity (TH immunopositive cell count); assay type: cell-based, human
Description: Human stem cells were differentiated into a dopaminergic (DAergic) phenotype using a well characterized method (Iacovitti et al. 2007 as modified in Cai et al., 2013).
hES cells were plated onto 24 well plates. Cells were pretreated with sialidase, GM1 or standard media for 2 hrs and were then exposed to the mitochondrial toxin MPP^+. Twenty-four hours later, media containing toxin was removed and fresh media containing the appropriate concentration of rescue agent was added. Two days later, cells were fixed, processed for tyrosine hydroxylase (TH) immunocytochemistry and the number of TH immunopositive cells were counted.
FIGS. 3A and 3B depict the protection/rescue of human embryonic stem cells from MPP^+ toxicity. A) The number of tyrosine hydroxylase immunopositive (TH^+) cells was reduced as a result of MPP^+ treatment.
Accordingly, the examples and studies identify that human embryonic stem (hES) cells, when differentiated into dopaminergic neurons, are susceptible to MPP^+ toxicity. However, there are mechanisms that exist that can mitigate the effects of MPP^+ toxicity. Indeed, MPP^+ toxicity in hES cells is mitigated by both GM1 and 0.005 U/mL VCS. Therefore, treatment with a sialidase, such as sialidase Neu3 that increases the amounts of GM1 expression in the striatum and the substantia nigra will provide neuroprotective effects.

YAC128 mice = conditions: cited from earlier work
[2] = hES cells differentiated to dopaminergic phenotype

Compound: OC1(c2ccc(Cl)cc2)c2ccccc2C2=NCCN21 (centres unmarked) [Mazindol, mazindol]
- total DA uptake (3H-DA) (DA uptake): effectively blocked

Compound: GM1
- oral bioavailability [1]: no oral bioavailability
- bioavailability/penetrance across the blood brain barrier ([1]; systemically administered): low
- change from baseline in score, early effect (PD patients; Early-start vs Delayed-start, Phase I to week 24): early symptomatic effect
- change from baseline in score, later effect (PD patients; Phase II to week 120): later disease modifying effect
- clinical benefit and symptom progression (PD patients; extended GM1 use up to 120 weeks): sustained clinical benefit and lower than expected symptom progression
- improving motor symptoms vs placebo (PD patients; first 24 weeks of the study): superior to placebo
- number of tyrosine hydroxylase immunopositive (TH+) cells (DAergic hES cells; 5 and 10 μM doses of MPP+, pretreated 2 hrs): prevented cell loss
- protection/rescue from MPP+ toxicity (TH+ cells) (DAergic hES cells; [2]): mitigated
- striatal dopamine levels (YAC128 mice; HD models, intracranial administration): normalization
- mHtt phosphorylation (YAC128 mice; YAC128 mice, infusion pump): phosphorylation of mHtt at serine residues 13 and 16
- time to normalization of motor function from start of treatment (YAC128 mice; infusion pump, YAC128 mice symptomatic for motor impairment): ≤ 2 weeks

Compound: VCS: Sialidase V purified from Vibrio cholerae; cleaves a2-8 linkages and terminal a2-3 linkages
- protection/rescue from MPP+ toxicity (TH+ cells) (DAergic hES cells; 0.005 U/mL VCS): mitigated
- protection/rescue from MPP+ toxicity (TH+ cells) (DAergic hES cells; [2]): protect/rescue cells from MPP^+ toxicity

Source: patent US10874749B2, “Gene therapies for neurodegenerative disorders targeting ganglioside biosynthetic pathways” (priority 2015, dated 2020)
